Where a name gives a salt, the structure may show the parent alone. Read-outs that look alike come from different tables or passages of the source.
Assays:
[1] = system: P. aeruginosa biofilms; assay: continuous flow chamber biofilm, 3-day-old, harvested and plated for viability; format: cell-based, P. aeruginosa PAO1; conditions: for eradication of mature biofilm (viability on LB plates): 24 hours
Excerpt: (§1) The wild-type P. aeruginosa PAO1 used for the planktonic and biofilm experiments was obtained from the Pseudomonas Genetic Stock Center (www.pseudomonas.med.ecu.edu, strain PAO0001). The wild-type S. aureus 8325-4, used for planktonic and biofilm experiments was described by Novick, R. P. 1967. For plating, Luria broth (LB) medium mix with 2.0% agar was used. For all experiments including bacterial biofilms, AB minimal medium supplemented with glucose was used except if different is mentioned. […] The continuous flow system is based on once through flow chambers perfused with sterile AB minimal medium containing 0.3 mM glucose as described by Christensen et al. (1999). Continuous flow biofilm tolerance to acetic acid was assessed by growing P. aeruginosa or S. aureus biofilms for three days, then subsequently at day three to four supplementing the AB minimal medium with different concentrations of acetic acid or HCl (HCL served as a as control to acetic acid treatments). […] Due to the buffer capacity of the AB minimal medium used, the pH of the solution became 4.33. […] After the treatment the biofilm biomasses were harvested mechanically from the flow chambers and plated on LB plates for determination of viability. […] The kinetics of antimicrobial activity against mature biofilms was tested by treating a 3-day-old continuous flow chamber biofilms of either P. aeruginosa with 0.5% or S. aureus with 1.0% acetic acid for 24 hours. Due to the buffer capacity of the AB minimal medium used the pH of the solution became 4.33. […] After the treatment the biofilms were harvested mechanically, by scraping with a sterile scalpel, from the flow chambers and plated on LB plates for determination of viable counts.

[2] = system: static P. aeruginosa biofilms; assay: static 24 hour old biofilm in microtiter dishes, CFU after treatment; format: cell-based; conditions: for antimicrobial effect on biofilm (CFU): 0.5% acetic acid
Excerpt: AB minimal medium without acetic acid adjusted to different pH values was used as control.
AB minimal medium supplemented with increasing concentrations of tobramycin served as control. The biofilm were harvested and plated on LB plates to determine the CFU after treatment (For visual appearance “no growth” is arbitrarily given a CFU value of 2).
AB minimal medium without acetic acid, but supplemented with increasing concentrations of tobramycin served as control.
The wild-type P. aeruginosa PAO1 used for the planktonic and biofilm experiments was obtained from the Pseudomonas Genetic Stock Center (www.pseudomonas.med.ecu.edu, strain PAO0001). The wild-type S. aureus 8325-4, used for planktonic and biofilm experiments was described by Novick, R. P. 1967.
For plating, Luria broth (LB) medium mix with 2.0% agar was used. For all experiments including bacterial biofilms, AB minimal medium supplemented with glucose was used except if different is mentioned.
(§2) The static biofilm setup is based on biofilms growing in microtiter dishes with AB minimal medium containing 0.3 mM glucose as described by O'toole et al (1999). Planktonic cultures were grown in shake flasks at 37° C.
(§3) Static biofilm tolerance to acetic acid was assessed by exchanging the AB minimal medium of 24 h old biofilms with AB minimal medium supplemented with different concentrations of acetic acid or HCl as control. To raise the pH of either acetic acid or HCl, NaOH was added in different concentrations.
(§4) To elucidate a synergistic antimicrobial effect of acetic acid and antibiotics, static biofilms of P. aeruginosa were grown for 24 hours prior to subsequent treatment with increasing concentrations of tobramycin and 0.5% acetic acid in the pH interval 3-6.85. The pH was adjusted by supplementing the AB minimal medium with either HCl or NaOH.

[3] = system: S. aureus biofilms; conditions: for eradication of mature biofilm (viability on LB plates): 24 hours
Excerpt: as §1

[4] = system: clinical non-mucoid P. aeruginosa isolate; conditions: 0.5% acetic acid, pH below 4.76
Description: as §2, §3, §4

[5] = system: clinical mucoid P. aeruginosa isolate; conditions: 0.5% acetic acid, pH below 4.76
Description: as §2, §3, §4

[6] = 0.5% acetic acid, AB minimal medium, pH 4.33
[7] = 1.0% acetic acid, AB minimal medium, pH 4.33

In the case of Cl [HCl, reference compound], the “eradication of mature biofilm (viability on LB plates)” value ([1]; AB minimal medium adjusted to pH 4.33 using HCl) is reported as “no effect”.
With NC[C@H]1O[C@H](O[C@H]2[C@H](O)[C@@H](O[C@H]3O[C@H](CO)[C@@H](O)[C@H](N)[C@H]3O)[C@H](N)C[C@@H]2N)[C@H](N)C[C@@H]1O [Tobramycin, tobramycin, reference compound] the “reduction of bacterial viability” value ([2]; tobramycin alone at concentrations above 12.5 μg/ml) was 5 fold.
CC(=O)O [acetic acid] was tested, and the “effect of acetic acid alone on biofilm” value [2] was “decreasing”, the “antibacterial effect on biofilm (CFU)” value ([2]; 0.5% acetic acid alone, pH 6.85) was “no antibacterial effect” and the “antimicrobial effect on biofilm (CFU)” value ([2]; pH 5) was “reduced effect”. For the same molecule, the “antimicrobial effect on biofilm (CFU)” value ([2]; pH 5.5 and above) was “no effect”, the “antimicrobial effect on biofilm (CFU)” value ([2]; pH interval 3-4.76) was “eradicated biofilms” and the “eradication of mature biofilm (viability on LB plates)” value [3, 6] was “reduced the number of viable cells”. The “eradication of mature biofilm” value ([3]; 1.0% acetic acid in sterile miliQ water) was “Complete eradication”, the “eradication of mature biofilm (viability on LB plates)” value [3, 7] was “complete eradication” and the “time to complete killing of all bacteria” value [3, 7] was 3 h. For the same molecule, the “eradication of biofilm (CFU)” value [4] was “eradicates the biofilms”, the “eradication of biofilm (CFU)” value [5] was “eradicates the biofilms” and the “eradication of mature biofilm” value ([1]; 0.5% acetic acid in sterile miliQ water) was “Complete eradication”. For the same molecule, the “eradication of mature biofilm (viability on LB plates)” value [1, 6] was “completely eradicated”, the “time to complete killing of all bacteria” value [1, 6] was 3 h and the “eradication of mature biofilm (viability on LB plates)” value [1, 7] was “completely eradicated”.
